Here are results for two compounds from patent US9133125B2, “Morphan and morphinan analogues, and methods of use” (priority 2013, dated 2015).

For this assay, the system named is Male Sprague-Dawley rats. The assay can be described thus: Thermal pain assay (rodent hot plate model). The assay is classed as in vivo. The conditions noted are these: rat, dose of 10 mg/kg, subcutaneous.

As to `Cl.NC(=O)c1ccc2c(c1O)[C@]13CCN(CC4CCC4)[C@H](C2)[C@]1(O)CC[C@H](O)C3` [Compound C, (4bR,6S,8aS,9R)-11-(cyclobutylmethyl)-4,6,8a-trihydroxy-6,7,8,8a,9,10-hexahydro-5H-9,4b-(epiminoethano)phenanthrene-3-carboxamide], the “antinociceptive effect, hot plate” value was “no antinociceptive effect”.
The entry for `Cl.NC(=O)c1ccc2c(c1O)[C@]13CCN(CC4CCC4)[C@H](C2)[C@]1(O)CC[C@@H](O)C3` [Compound D, (4bR,6R,8aS,9R)-11-(cyclobutylmethyl)-4,6,8a-trihydroxy-6,7,8,8a,9,10-hexahydro-5H-9,4b-(epiminoethano)phenanthrene-3-carboxamide] is “no antinociceptive effect”.
